In experiment [1] the test system is HL-1. Put plainly: cardiomyocyte survival under oxidative or metabolic stress – cell-based, panel, H9c2 and HL-1, H2O2, 2-deoxyglucose, ATP luminescence, SAR follow-up (AID 651642).
The test system of experiment [2] is H9c2. Described as above.
The mark [3] stands for this setting: H9c2/HL-1 cardiomyocyte 2-deoxyglucose damage, mean of runs, with 2-deoxyglucose, mean IC50 across panel.
Where [4] appears, read: H9c2/HL-1 cardiomyocyte 2-deoxyglucose damage, run 1, with 2-deoxyglucose.
Setting [5] is: H9c2/HL-1 cardiomyocyte 2-deoxyglucose damage, run 2, with 2-deoxyglucose.
Where [6] appears, read: H9c2/HL-1 cardiomyocyte 2-deoxyglucose damage, run 3, with 2-deoxyglucose.
[7] abbreviates: H9c2/HL-1 cardiomyocyte 2-deoxyglucose damage, run 4, with 2-deoxyglucose.
Setting [8] is: H9c2/HL-1 cardiomyocyte H2O2 oxidative damage, run 1, with H2O2.
Where [9] appears, read: H9c2/HL-1 cardiomyocyte H2O2 oxidative damage, run 2, with H2O2.
Where [10] appears, read: H9c2/HL-1 cardiomyocyte H2O2 oxidative damage, run 3, with H2O2.
Setting [11] is: H9c2/HL-1 cardiomyocyte H2O2 oxidative damage, run 4, with H2O2.
Setting [12] is: H9c2/HL-1 cardiomyocyte H2O2 oxidative damage, mean of runs, with H2O2, mean IC50 across panel.

A value given as a limit tells only on which side of the number the result lay.

Consider `CCOC(=O)c1cccc(NC(=O)c2cc(-c3cc(OC)c(OC)c(OC)c3)nc3cc(Cl)ccc23)c1`, for which the IC50 in experiment [1] (setting [3]), in experiment [1] (setting [4]), in experiment [1] (setting [5]), in experiment [1] (setting [6]), in experiment [1] (setting [7]) and in experiment [1] (setting [8]) was above 79 µM in each case. The IC50 in experiment [1] (setting [9]) is above 79 µM; in experiment [1] (setting [10]), 6.51 µM; in experiment [1] (setting [11]), 6.76 µM; in experiment [2] (setting [3]), above 79 µM; in experiment [2] (setting [4]) it was above 79 µM; in experiment [2] (setting [5]), above 79 µM. The IC50 in experiment [2] (setting [6]) is above 79 µM; in experiment [2] (setting [7]), above 79 µM; in experiment [2] (setting [8]), above 79 µM; in experiment [2] (setting [9]), 31.1 µM; in experiment [2] (setting [10]), above 79 µM; in experiment [2] (setting [11]) it was above 79 µM.
`COc1cc(-c2cc(C(=O)Nc3cccc(C(=O)NC4CC4)c3)c3ccccc3n2)cc(OC)c1OC`: the IC50 in experiment [1] (setting [3]) worked out at 6.39 µM; in experiment [1] (setting [4]) it was 3.71 µM; in experiment [1] (setting [5]) it was 4.41 µM; in experiment [1] (setting [6]), 7.05 µM; in experiment [1] (setting [7]) it was 10.4 µM; in experiment [1] (setting [12]), 6.68 µM. Besides, the IC50 in experiment [1] (setting [8]) was determined as 4.24 µM; in experiment [1] (setting [9]) it was 4.83 µM; in experiment [1] (setting [10]), 7.07 µM; in experiment [1] (setting [11]), 10.6 µM; in experiment [2] (setting [3]), 19.6 µM; in experiment [2] (setting [4]), 19.4 µM. Further, the IC50 in experiment [2] (setting [5]) was found to be 21 µM; in experiment [2] (setting [6]) it was 18.4 µM; in experiment [2] (setting [7]) it was 19.8 µM; in experiment [2] (setting [12]) it was 2.51 µM; in experiment [2] (setting [8]), 2 µM; in experiment [2] (setting [9]) it was 2.73 µM. In addition, the IC50 in experiment [2] (setting [10]) stood at 2.22 µM; in experiment [2] (setting [11]), 3.11 µM.
`CCOC(=O)c1cccc(NC(=O)CNC(=O)c2cc(-c3cc(OC)c(OC)c(OC)c3)nc3ccc(OC)cc23)c1`: the IC50 in experiment [1] (setting [3]) came to 2.3 µM; in experiment [1] (setting [4]), 1.59 µM; in experiment [1] (setting [5]), 1.73 µM; in experiment [1] (setting [6]), 2.93 µM; in experiment [1] (setting [7]), 2.94 µM; in experiment [1] (setting [12]), 3.57 µM. For the same compound, the concentration for half-maximal inhibition (IC50) in experiment [1] (setting [8]) turned out to be 3.75 µM; in experiment [1] (setting [9]) it was 3.81 µM; in experiment [1] (setting [10]), 2.62 µM; in experiment [1] (setting [11]), 4.12 µM; in experiment [2] (setting [3]), 3.16 µM; in experiment [2] (setting [4]), 4.42 µM. Moreover, the IC50 in experiment [2] (setting [5]) was determined as 4.8 µM; in experiment [2] (setting [6]), 1.68 µM; in experiment [2] (setting [7]), 1.75 µM; in experiment [2] (setting [12]), 0.739 µM; in experiment [2] (setting [8]), 0.965 µM; in experiment [2] (setting [9]), 0.974 µM. The results for the IC50 in experiment [2] (setting [10]) and in experiment [2] (setting [11]) were 0.483 µM and 0.534 µM, respectively.
Regarding `COc1cc(-c2cc(C(=O)Nc3cccc(C(=O)Nc4ccccc4)c3)c3ccccc3n2)cc(OC)c1OC`, the IC50 in experiment [1] (setting [3]) was 1.19 µM; in experiment [1] (setting [4]) it was 0.708 µM; in experiment [1] (setting [5]), 0.802 µM; in experiment [1] (setting [6]), 1.43 µM; in experiment [1] (setting [7]), 1.8 µM; in experiment [1] (setting [8]), above 79 µM. Further, the IC50 in experiment [1] (setting [9]) is 1.54 µM; in experiment [1] (setting [10]) it was 1.68 µM; in experiment [1] (setting [11]), 2.15 µM; in experiment [2] (setting [3]) it was 4.71 µM; in experiment [2] (setting [4]) it was 5.69 µM; in experiment [2] (setting [5]), 5.71 µM. The IC50 in experiment [2] (setting [6]) was 3.53 µM; in experiment [2] (setting [7]), 3.93 µM; in experiment [2] (setting [12]), 1.28 µM; in experiment [2] (setting [8]), 1.55 µM; in experiment [2] (setting [9]), 1.96 µM; in experiment [2] (setting [10]), 0.724 µM. In addition, the IC50 in experiment [2] (setting [11]) came out at 0.895 µM.
On to `COc1ccc2c(c1OC)C(=O)N1c3ccccc3C(=O)N(Cc3ccccc3C)C21` (stereo not given), for which the IC50 was 3.01 µM in experiment [1] (setting [3]); 1.65 µM in experiment [1] (setting [4]); 1.91 µM in experiment [1] (setting [5]); 3.79 µM in experiment [1] (setting [6]); 4.71 µM in experiment [1] (setting [7]); above 79 µM in experiment [1] (setting [12]). Moreover, the 50% inhibitory concentration (IC50) in experiment [1] (setting [8]) was above 79 µM; in experiment [1] (setting [9]), above 79 µM; in experiment [1] (setting [10]), above 79 µM; in experiment [1] (setting [11]) it was above 79 µM; in experiment [2] (setting [3]), 16.3 µM; in experiment [2] (setting [4]) it was 17 µM. The concentration for half-maximal inhibition (IC50) is 18.1 µM in experiment [2] (setting [5]); 13.8 µM in experiment [2] (setting [6]); 16.2 µM in experiment [2] (setting [7]); 1.32 µM in experiment [2] (setting [8]); 2.6 µM in experiment [2] (setting [9]); above 79 µM in experiment [2] (setting [10]). In experiment [2] (setting [11]), this compound had a half-inhibitory concentration (IC50) above 79 µM.
In the case of `COc1cc(-c2cc(C(=O)Nc3cccc(C(=O)N4CCOCC4)c3)c3ccccc3n2)cc(OC)c1OC`, the IC50 in experiment [1] (setting [3]) amounted to 19 µM; in experiment [1] (setting [4]) it was 8.16 µM; in experiment [1] (setting [5]), 11.2 µM; in experiment [1] (setting [6]) it was 27.8 µM; in experiment [1] (setting [7]), 28.6 µM; in experiment [1] (setting [12]) it was 14.7 µM. Besides, the IC50 in experiment [1] (setting [8]) was 12.9 µM; in experiment [1] (setting [9]), 16.7 µM; in experiment [1] (setting [10]) it was 10.7 µM; in experiment [1] (setting [11]) it was 18.4 µM; in experiment [2] (setting [4]), above 79 µM; in experiment [2] (setting [5]), 60.5 µM. The IC50 in experiment [2] (setting [6]) is above 79 µM; in experiment [2] (setting [7]), above 79 µM; in experiment [2] (setting [12]), 5.92 µM; in experiment [2] (setting [8]) it was 6.19 µM; in experiment [2] (setting [9]) it was 7.7 µM; in experiment [2] (setting [10]), 4.73 µM. The IC50 in experiment [2] (setting [11]) was 5.07 µM.

For the origin of these results see PubChem BioAssay AID651642 (Sanford-Burnham Center for Chemical Genomics, 2012).
